Laboratory results reported in patent EP0338372A2, “Solubilized pro-drugs” (AMERICAN CYANAMID COMPANY, priority 1988, dated 1989).

Tested on: lymphocytic leukemia P388
Test: Lymphocytic leukemia P388 test
Assay type: in vivo, BDF1 mice
[1] = Dose 3.12 mg/kg intraperitoneally on days 1, 5 and 9
[2] = Dose 6.25 mg/kg intraperitoneally on days 1, 5 and 9
[3] = Dose 12.5 mg/kg intraperitoneally on days 1, 5 and 9
[4] = Dose 25 mg/kg intraperitoneally on days 1, 5 and 9
[5] = Dose 50 mg/kg intraperitoneally on days 1, 5 and 9
[6] = Dose 100 mg/kg intraperitoneally on days 1, 5 and 9
[7] = Dose 200 mg/kg intraperitoneally on days 1, 5 and 9
[8] = Dose 12.25 mg/kg intraperitoneally on days 1, 5 and 9

SMILES	Median Survival [3] [days]	T/C x 100 % [3] [%]	Median Survival [4] [days]	T/C x 100 % [4] [%]	Median Survival [5] [days]	T/C x 100 % [5] [%]	Median Survival [6] [days]	T/C x 100 % [6] [%]	Median Survival [7] [days]	T/C x 100 % [7] [%]	further results
O=C(c1cccc([N+](=O)[O-])c1)N1CCN=C1N(N=Cc1c2ccccc2c(C=NN(C(=O)c2cccc([N+](=O)[O-])c2)C2=NCCN2C(=O)c2cccc([N+](=O)[O-])c2)c2ccccc12)C(=O)c1cccc([N+](=O)[O-])c1 [2,2'(9,10-Anthracenediyldimethylidyne)bis[1-[4,5-dihydro-1-(3-nitrobenzoyl)-1H-imidazol-2-yl]hydra-zide] of 3-nitrobenzoic acid]	13.5	113	18	150	16.5	138	18	150	21.5	179	Median Survival [1]: 16 days; T/C x 100 % [1]: 133%; Median Survival [2]: 16 days; T/C x 100 % [2]: 133%
CC(=O)N1CCN=C1N(N=Cc1c2ccccc2c(C=NN(C(C)=O)C2=NCCN2C(C)=O)c2ccccc12)C(C)=O [2,2'-(9,10-Anthracenediyldimethylidyne)bis[1-(1-acetyl-4,5-dihydro-1H-imidazol-2-yl)hydrazide] of acetic acid]	10.5	105	–	–	10.5	105	11	110	–	–	–
O=C(c1ccccc1F)N1CCN=C1N(N=Cc1c2ccccc2c(C=NN(C(=O)c2ccccc2F)C2=NCCN2C(=O)c2ccccc2F)c2ccccc12)C(=O)c1ccccc1F [2,2'-(9,10-Anthracenediyldimethylidyne)bis[1-[1-(2-fluorobenzoyl)-4,5-dihydro-1H-imidazol-2-yl] hydrazide] of 2-fluorobenzoic acid]	–	–	12	109	13	118	13	118	12	109	–
O=C(c1ccco1)N1CCN=C1N(N=Cc1c2ccccc2c(C=NN(C(=O)c2ccco2)C2=NCCN2C(=O)c2ccco2)c2ccccc12)C(=O)c1ccco1 [2,2'-(9,10-Anthracenediyldimethylidyne)bis[1-[1-(2-furanylcarbonyl)-4,5-dihydro-1H-imidazol-2-yl]hydrazide] of 2-furancarboxylic acid]	–	–	–	–	–	–	–	–	12	120	–
CC(C)(C)CC(=O)N1CCN=C1N(N=Cc1c2ccccc2c(C=NN(C(=O)CC(C)(C)C)C2=NCCN2C(=O)CC(C)(C)C)c2ccccc12)C(=O)CC(C)(C)C [2,2'-(9,10-Anthracenediyldimethylidyne)bis[1-[1-(3,3-dimethyl-1-oxobutyl)-4,5-dihydro-1H-imidazol-2-yl]-hydrazide] of 3,3-dimethylbutanoic acid]	–	–	–	–	–	–	12	109	13	118	–
N#Cc1ccc(C(=O)N2CCN=C2N(N=Cc2c3ccccc3c(C=NN(C(=O)c3ccc(C#N)cc3)C3=NCCN3C(=O)c3ccc(C#N)cc3)c3ccccc23)C(=O)c2ccc(C#N)cc2)cc1 [2,2'-(9,10-Anthracenediyldimethylidyne)bis[1-[1-(4-cyanobenzoyl)-4,5-dihydro-1H-imidazol-2-yl] hydrazide] of 4-cyanobenzoic acid]	–	–	12	109	12.5	114	14.5	132	14.5	132	–
CCCCCCc1ccc(C(=O)N2CCN=C2N(N=Cc2c3ccccc3c(C=NN(C(=O)c3ccc(CCCCCC)cc3)C3=NCCN3C(=O)c3ccc(CCCCCC)cc3)c3ccccc23)C(=O)c2ccc(CCCCCC)cc2)cc1 [2,2'-(9,10-Anthracenediyldimethylidyne)bis[1-[1-(4-hexylbenzoyl)-4,5-dihydro-1H-imidazol-2-yl]hydra-zide] of 4-hexylbenzoic acid]	–	–	–	–	–	–	–	–	14	127	–
CCCC(=O)N1CCN=C1N(N=Cc1c2ccccc2c(C=NN(C(=O)CCC)C2=NCCN2C(=O)CCC)c2ccccc12)C(=O)CCC [2,2'-(9,10-Anthracenediyldimethylidyne)bis[1-[4,5-dihydro-1-(1-oxobutyl)-1H-imidazol-2-yl]hydra-zide] of butanoic acid]	–	–	–	–	–	–	–	–	11.5	105	–
O=C(c1ccc2ccccc2c1)N1CCN=C1N(N=Cc1c2ccccc2c(C=NN(C(=O)c2ccc3ccccc3c2)C2=NCCN2C(=O)c2ccc3ccccc3c2)c2ccccc12)C(=O)c1ccc2ccccc2c1 [2,2'-(9,10-Anthracenediyldimethylidyne)bis[1-[4,5-dihydro-1-(2-naphthalenylcarbonyl)-1H-imidazol-2-yl]-hydrazide] of 2-naphthoic acid]	–	–	–	–	–	–	12	104	–	–	–
COc1ccc(C(=O)N2CCN=C2N(N=Cc2c3ccccc3c(C=NN(C(=O)c3ccc(OC)cc3)C3=NCCN3C(=O)c3ccc(OC)cc3)c3ccccc23)C(=O)c2ccc(OC)cc2)cc1 [2,2'-(9,10-Anthracenediyldimethylidyne)bis[1-[4,5-dihydro-1-(4-methoxybenzoyl)-1H-imidazol-2-yl] hydrazide] of 4-methoxybenzoic acid]	–	–	–	–	–	–	–	–	16	139	–
O=C(c1c(F)c(F)c(F)c(F)c1F)N1CCN=C1N(N=Cc1c2ccccc2c(C=NN(C(=O)c2c(F)c(F)c(F)c(F)c2F)C2=NCCN2C(=O)c2c(F)c(F)c(F)c(F)c2F)c2ccccc12)C(=O)c1c(F)c(F)c(F)c(F)c1F [2,2'-(9,10-Anthracenediyldimethylidyne)bis[1-[4,5-dihydro-1-(pentafluoro-1H-imidazol-2-yl)hydra-zide] of pentafluorobenzoic acid]	–	–	–	–	–	–	–	–	12	109	–
CC(=O)N1CCN=C1NN=Cc1c2ccccc2c(C=NNC2=NCCN2C(C)=O)c2ccccc12 [2,2'-[9,10-Anthracenediylbis(methylidyne-1-hydrazinyl-2-ylidene)]bis[1-acetyl-4,5-dihydro-1H-imidazole]	10.5	105	10.5	105	11	110	–	–	–	–	Median Survival [2]: 10.5 days; T/C x 100 % [2]: 105%
O=CN1CCN=C1N(C=O)N=Cc1c2ccccc2c(C=NN(C=O)C2=NCCN2C=O)c2ccccc12 [2,2'-[9,10-Anthracenediylbis[methylidyne(1-formyl-1-hydrazinyl-2-ylidene)]]bis[4,5-dihydro-1H-imidazole-1-carboxaldehyde]]	10.5	105	–	–	11	110	–	–	11.5	115	–
CC(C)(C)OC(=O)N1CCN=C1NN=Cc1c2ccccc2c(C=NNC2=NCCN2C(=O)OC(C)(C)C)c2ccccc12 [2,2-(9,10-Anthracenediylbis(methylidyne-1-hydrazinyl-2-ylidene)]bis[4,5-dihydro]-1H-imidazole-1-carboxylic Acid], Bis(1,1-dimethylethyl) Ester]	–	–	22	191	31.5	274	–	–	–	–	Median Survival [8]: 17.5 days; T/C x 100 % [8]: 152%
COCC(=O)N1CCN=C1N(N=Cc1c2ccccc2c(C=NN(C(=O)COC)C2=NCCN2C(=O)COC)c2ccccc12)C(=O)COC [2,2-(9,10-Anthracenediyldimethylidyne)bis[1-[4,5-dihydro-1-(methoxyacetyl)-1H-imidazo)-2-yl]hydrazide] of Methoxyacetic Acid]	16.5	150	–	–	16.5	150	–	–	16.5	150	Median Survival [1]: 14.5 days; T/C x 100 % [1]: 132%
Cc1ccc(S(=O)(=O)N2CCN=C2NN=Cc2c3ccccc3c(C=NNC3=NCCN3S(=O)(=O)c3ccc(C)cc3)c3ccccc23)cc1 [2,2-[9,10-Anthracenediylbis(methylidyne-1-hydrazinyl-2-ylidene)]bis[4,5-dihydro-1-[(4-methylphenyl)sulfonyl]-1H-imidazole]]	–	–	–	–	14	127	–	–	14	127	–
O=CN1CCN=C1NN=Cc1c2ccccc2c(C=NNC2=NCCN2C=O)c2ccccc12 [2,2-[9,10-Anthracenediylbis(methylidyne-1-hydrazinyl-2-ylidene)]bis[4,5-dihydro]-1H-imidazole-1-carboxaldehyde]	–	–	–	–	12	120	–	–	12	120	–
O=C(O)C1CCCCC1C(=O)N1CCN=C1NN=Cc1c2ccccc2c(C=NNC2=NCCN2C(=O)C2CCCCC2C(=O)O)c2ccccc12 (stereo not drawn) [2,2-[9,10-Anthracenediylbis[methylidyne-1-hydrazinyl-2-ylidene(4,5-dihydro-1H-imidazole-2,1-diyl)-carbonyl]]biscyclohexanecarboxylic Acid]	16	145	18	164	–	–	–	–	–	–	Median Survival [2]: 13.5 days; T/C x 100 % [2]: 123%
O=C(O)CCCC(=O)N1CCN=C1NN=Cc1c2ccccc2c(C=NNC2=NCCN2C(=O)CCCC(=O)O)c2ccccc12 [2,2-[9,10-Anthracenedlylbis(methylidyne-1-hydrazinyl-2-ylidene)]bis[4,5-dihydro-delta-oxo-1H-imidazole-1-pentanoic Acid]]	18	164	–	–	19	173	–	–	23	209	Median Survival [1]: 15.5 days; T/C x 100 % [1]: 141%
